Test results taken from the OligoGym collection.
“And” between values parts separate entries of the source, which are not always exact repeats. Equal entries are not always repeated. After the bases stand the sugars from the 5' end (letter, count) and the backbone: PS all phosphorothioate, else s phosphorothioate and o phosphodiester by linkage. Methylation of C is not given here. e = 2'-O-(2-methoxyethyl) (MOE); k = constrained ethyl (cEt); d = 2'-deoxy (DNA)

Legend:
[1] = molecular target: DGAT2; conditions: ASO
[2] = molecular target: SOD1; conditions: ASO

“GACCTATTGAGCCAGGTGAC (sugars e5 d10 e5, PS)” gave a target mRNA inhibition ([1]; HepG2, 0.12 µM) of 36%.
For “TCCATTTTTTACCCAACCTT (sugars e5 d10 e5, PS)”, the target mRNA inhibition ([1]; HepG2, 2.5 µM) was 56% and 49% and the target mRNA inhibition ([1]; HepG2, 10 µM) was 93% and 94%.
In the case of “AAGATTCATAACTATATCTA (sugars e5 d10 e5, PS)”, the target mRNA inhibition ([1]; HepG2, 0.12 µM) was 6%.
For “GGCTCCGGTCAGCCTCGGCC (sugars e5 d10 e5, PS)”, the target mRNA inhibition ([1]; HepG2, 0.12 µM) was 0%.
With “ATACCTTATCTTTGTCCACA (sugars e5 d10 e5, PS)” the target mRNA inhibition ([1]; HepG2, 2.5 µM) was 79% and the target mRNA inhibition ([1]; HepG2, 10 µM) was 94%.
In the case of “GCATTCTTGCCAGGCATGGA (sugars e5 d10 e5, PS)”, the target mRNA inhibition ([1]; HepG2, 2.5 µM) was 41% and the target mRNA inhibition ([1]; HepG2, 10 µM) was 74%.
In the case of “CCTCCAGACATCAGGTACTC (sugars e5 d10 e5, PS)”, the target mRNA inhibition ([1]; HepG2, 0.12 µM) was 29%.
Sequence “GGACAGCTGTGATGACTTCC (sugars e5 d10 e5, PS)” has a target mRNA inhibition ([1]; HepG2, 2.5 µM) of 55% and a target mRNA inhibition ([1]; HepG2, 10 µM) of 76%.
“GGAAAACTTAGGCATGCTTC (sugars e5 d10 e5, PS)” was tested, and the target mRNA inhibition ([1]; HepG2, 2.5 µM) was 64% and 72% and the target mRNA inhibition ([1]; HepG2, 10 µM) was 90% and 87%.
“CAGGACCCACTGGAGCACTG (sugars e2 d13 e5, PS)” was tested, and the target mRNA inhibition ([1]; HepG2, 0.12 µM) was 78%.
“GCTACTGGCATTGCTCCTCC (sugars e5 d10 e5, PS)” gave a target mRNA inhibition ([1]; HepG2, 2.5 µM) of 42% and a target mRNA inhibition ([1]; HepG2, 10 µM) of 81%.
Work on “CTCAGAGACTCAGCCGCACC (sugars e5 d10 e5, PS)” yielded a target mRNA inhibition ([1]; HepG2, 0.12 µM) of 80%, a target mRNA inhibition ([1]; HepG2, 2.5 µM) of 30% and a target mRNA inhibition ([1]; HepG2, 10 µM) of 91%. For the same sequence, the target mRNA inhibition ([1]; HepG2, 20 µM) was 54%.
For “TGGGAACTATCACACCACCT (sugars e5 d10 e5, PS)”, the target mRNA inhibition ([1]; HepG2, 2.5 µM) was 53% and 65% and the target mRNA inhibition ([1]; HepG2, 10 µM) was 90% and 94%.
Work on “TCATCTTTCCAGATCCGGAC (sugars e5 d10 e5, PS)” yielded a target mRNA inhibition ([1]; HepG2, 2.5 µM) of 76% and a target mRNA inhibition ([1]; HepG2, 10 µM) of 89%.
“TGATAGCATTGCCACTCCCA (sugars e2 d13 e5, PS)” showed a target mRNA inhibition ([1]; HepG2, 0.12 µM) of 69%.
“CACTGGAGCACTGAGATGAC (sugars e2 d13 e5, PS)” was tested, and the target mRNA inhibition ([1]; HepG2, 0.12 µM) was 61%.
In the case of “GGCTGAGTCTGTGCTGCATC (sugars e5 d10 e5, PS)”, the target mRNA inhibition ([1]; HepG2, 2.5 µM) was 85% and 65% and the target mRNA inhibition ([1]; HepG2, 10 µM) was 81%.
In the case of “GAAAACTTAGGCATGCTTCC (sugars e5 d10 e5, PS)”, the target mRNA inhibition ([1]; HepG2, 2.5 µM) was 59% and the target mRNA inhibition ([1]; HepG2, 10 µM) was 92%.
“CAGCACTAATTTTTACAACT (sugars e5 d10 e5, PS)” was tested, and the target mRNA inhibition ([1]; HepG2, 2.5 µM) was 86% and the target mRNA inhibition ([1]; HepG2, 10 µM) was 95%.
With “GCCTGGACAAGTCCTGCCCA (sugars e5 d10 e5, PS)” the target mRNA inhibition ([1]; HepG2, 0.12 µM) was 70% and 86% and the target mRNA inhibition ([1]; HepG2, 20 µM) was 81% and 88%.
With “GACCCACTGGAGCACTGAGA (sugars e3 d14 e3, PS)” the target mRNA inhibition ([1]; HepG2, 0.12 µM) was 56%.
“TACAGGGTTTTTATTCA (sugars e2 k2 d8 k2 e3, PS)” showed a target mRNA inhibition ([2]; HepG2, 5 µM) of 13%.
Work on “GATACATTTCTACAGCTA (sugars e5 d8 e5, linkages s1 o3 s9 o2 s2)” yielded a target mRNA inhibition ([2]; A431, 0.12 µM) of 7%, a target mRNA inhibition ([2]; A431, 0.6 µM) of 15% and a target mRNA inhibition ([2]; A431, 3 µM) of 39%. It also gave a target mRNA inhibition ([2]; A431, 15 µM) of 52%, a target mRNA inhibition ([2]; HepG2, 0.222 µM) of 28% and a target mRNA inhibition ([2]; HepG2, 0.667 µM) of 59%. For the same sequence, the target mRNA inhibition ([2]; HepG2, 2 µM) was 73% and the target mRNA inhibition ([2]; HepG2, 6 µM) was 85%.
Sequence “GGCCTCAGACTACATCC (sugars e2 k2 d9 k2 e2, PS)” has a target mRNA inhibition ([2]; HepG2, 0.1875 µM) of 4%, a target mRNA inhibition ([2]; HepG2, 0.75 µM) of 50% and a target mRNA inhibition ([2]; HepG2, 3 µM) of 68%. For the same sequence, the target mRNA inhibition ([2]; HepG2, 4 µM) was 76% and the target mRNA inhibition ([2]; HepG2, 12 µM) was 86%.
For “GCCGTCGCCCTTCAGCA (sugars e2 k2 d8 k2 e3, PS)”, the target mRNA inhibition ([2]; HepG2, 4 µM) was 64%.
“TTAGTTTGAATTTGGATTCT (sugars e5 d10 e5, PS)” gave a target mRNA inhibition ([2]; HepG2, 5 µM) of 0%.
“ACATGGAATCCATGCAG (sugars e3 k2 d7 k2 e3, PS)” was tested, and the target mRNA inhibition ([2]; HepG2, 3 µM) was 0%.
“CTCCTGAGAGTGAGATCACA (sugars e5 d10 e5, PS)” gave a target mRNA inhibition ([2]; HepG2, 5 µM) of 27%.
“TCCAAGGGAATGTTTAT (sugars e2 k2 d8 k2 e3, PS)” gave a target mRNA inhibition ([2]; HepG2, 4 µM) of 27%.
For “ATTGGGCGATCCCAATT (sugars e3 k2 d7 k2 e3, PS)”, the target mRNA inhibition ([2]; HepG2, 3 µM) was 19%.
In the case of “ACAGCTAGCAGGATAAC (sugars e2 k2 d8 k2 e3, PS)”, the target mRNA inhibition ([2]; HepG2, 0.1875 µM) was 11%, the target mRNA inhibition ([2]; HepG2, 0.75 µM) was 64% and the target mRNA inhibition ([2]; HepG2, 3 µM) was 87%. It also gave a target mRNA inhibition ([2]; HepG2, 4 µM) of 79% and a target mRNA inhibition ([2]; HepG2, 12 µM) of 95%.
“TCAGTTTCTCACTACAG (sugars e2 k2 d8 k2 e3, PS)” was tested, and the target mRNA inhibition ([2]; HepG2, 5 µM) was 25%.
“AGGTACTTTAAAGCAACTCT (sugars e5 d10 e5, PS)” showed a target mRNA inhibition ([2]; HepG2, 5 µM) of 36%.
“GTTTAATGTTTATCAGG (sugars e2 k2 d9 k2 e2, PS)” showed a target mRNA inhibition ([2]; HepG2, 0.1875 µM) of 67%, a target mRNA inhibition ([2]; HepG2, 0.75 µM) of 84% and a target mRNA inhibition ([2]; HepG2, 3 µM) of 94%. For the same sequence, the target mRNA inhibition ([2]; HepG2, 5 µM) was 92% and the target mRNA inhibition ([2]; HepG2, 12 µM) was 96%.
In the case of “TTCCCCACACCTTCACTG (sugars e5 d8 e5, linkages s1 o3 s9 o2 s2)”, the target mRNA inhibition ([2]; A431, 0.12 µM) was 2%, the target mRNA inhibition ([2]; A431, 0.6 µM) was 0% and the target mRNA inhibition ([2]; A431, 3 µM) was 0%. For the same sequence, the target mRNA inhibition ([2]; A431, 15 µM) was 9%, the target mRNA inhibition ([2]; HepG2, 0.222 µM) was 7% and the target mRNA inhibition ([2]; HepG2, 0.667 µM) was 4%. The target mRNA inhibition ([2]; HepG2, 2 µM) was 42% and the target mRNA inhibition ([2]; HepG2, 6 µM) was 17%.
Work on “TTACAGTGTTTAATGTTT (sugars e5 d8 e5, linkages s1 o3 s9 o2 s2)” yielded a target mRNA inhibition ([2]; A431, 0.12 µM) of 4%, a target mRNA inhibition ([2]; A431, 0.6 µM) of 0% and a target mRNA inhibition ([2]; A431, 3 µM) of 33%. For the same sequence, the target mRNA inhibition ([2]; A431, 15 µM) was 17%, the target mRNA inhibition ([2]; HepG2, 0.222 µM) was 17% and the target mRNA inhibition ([2]; HepG2, 0.667 µM) was 42%. For the same sequence, the target mRNA inhibition ([2]; HepG2, 2 µM) was 76% and the target mRNA inhibition ([2]; HepG2, 6 µM) was 54%.
“ACCTCCGCGCCTCGCCCACT (sugars e5 d10 e5, PS)” was tested, and the target mRNA inhibition ([2]; HepG2, 4 µM) was 63% and 77% and the target mRNA inhibition ([2]; HepG2, 12 µM) was 92%.
Sequence “CCACACCTTCACTGGTC (sugars e3 k2 d7 k2 e3, PS)” has a target mRNA inhibition ([2]; HepG2, 3 µM) of 36%.
“AATAGCCTCATAATAAG (sugars e2 k2 d8 k2 e3, PS)” was tested, and the target mRNA inhibition ([2]; HepG2, 5 µM) was 20%.
With “AGCTAGCAGGATAACAG (sugars e3 k2 d7 k2 e3, PS)” the target mRNA inhibition ([2]; HepG2, 3 µM) was 15%.
In the case of “ACAGGTACTTTAAAGCA (sugars e2 k2 d9 k2 e2, PS)”, the target mRNA inhibition ([2]; HepG2, 5 µM) was 20%.
With “TTCTGACAAGTTTAATA (sugars e3 k2 d7 k2 e3, PS)” the target mRNA inhibition ([2]; HepG2, 3 µM) was 6%.
“CAAAATACAGGTCATTG (sugars e3 k2 d7 k2 e3, PS)” gave a target mRNA inhibition ([2]; HepG2, 3 µM) of 23%.
With “TGGCAAAATACAGGTCA (sugars e2 k2 d8 k2 e3, PS)” the target mRNA inhibition ([2]; HepG2, 5 µM) was 33%.
In the case of “GATTACAGTGTTTAATG (sugars e2 k2 d9 k2 e2, PS)”, the target mRNA inhibition ([2]; HepG2, 5 µM) was 61%.
“CAAGGGAATGTTTATTG (sugars e2 k2 d9 k2 e2, PS)” was tested, and the target mRNA inhibition ([2]; HepG2, 4 µM) was 38%.
For “AGCAACTCTGAAAAAGTCAC (sugars e5 d10 e5, PS)”, the target mRNA inhibition ([2]; HepG2, 5 µM) was 14%.
“CCTCAGACTACATCCAA (sugars e3 k2 d7 k2 e3, PS)” was tested, and the target mRNA inhibition ([2]; HepG2, 0.1875 µM) was 16%, the target mRNA inhibition ([2]; HepG2, 0.75 µM) was 42% and the target mRNA inhibition ([2]; HepG2, 3 µM) was 58% and 70%. For the same sequence, the target mRNA inhibition ([2]; HepG2, 12 µM) was 84%.
“GTTTAATGTTTATCAG (sugars ekddddddddekekee, linkages s1 o1 s8 o3 s2)” gave a target mRNA inhibition ([2]; A431, 0.12 µM) of 2%, a target mRNA inhibition ([2]; A431, 0.6 µM) of 19% and a target mRNA inhibition ([2]; A431, 3 µM) of 33%. The target mRNA inhibition ([2]; A431, 15 µM) was 62%, the target mRNA inhibition ([2]; HepG2, 0.222 µM) was 44% and the target mRNA inhibition ([2]; HepG2, 0.667 µM) was 63%. For the same sequence, the target mRNA inhibition ([2]; HepG2, 2 µM) was 82% and the target mRNA inhibition ([2]; HepG2, 6 µM) was 94%.
“GATACATTTCTACAGCT (sugars e2 k2 d8 k2 e3, PS)” gave a target mRNA inhibition ([2]; HepG2, 4 µM) of 64%.
Work on “TGAGGACCTGCACTGGT (sugars e3 k2 d7 k2 e3, PS)” yielded a target mRNA inhibition ([2]; HepG2, 3 µM) of 8%.
“CAGGATACATTTCTACAG (sugars e5 d8 e5, linkages s1 o3 s9 o2 s2)” gave a target mRNA inhibition ([2]; A431, 0.12 µM) of 2%, a target mRNA inhibition ([2]; A431, 0.6 µM) of 31% and a target mRNA inhibition ([2]; A431, 3 µM) of 9%. It also gave a target mRNA inhibition ([2]; A431, 15 µM) of 18%, a target mRNA inhibition ([2]; HepG2, 0.222 µM) of 14% and a target mRNA inhibition ([2]; HepG2, 0.667 µM) of 31%. The target mRNA inhibition ([2]; HepG2, 2 µM) was 54% and the target mRNA inhibition ([2]; HepG2, 6 µM) was 84%.
